Results reported in US9139557B2, “Carboxamide compounds and their use as calpain inhibitors” (Abbott GmbH & Co. KG, priority 2006, dated 2015).

What was measured:
Assay type in all cases: biochemical
[1] = molecular target: T1, cathepsin K (Homo sapiens, UniProt P43235); assay: Cathepsin K enzyme inhibition in vitro (kinetic fluorescence assay); conditions: Ki(cathepsin K)/Ki(calpain) ratio
T1 construct: purchased Calbiochem 342001; host or cells: E. coli
T1 sequence (P43235 115-329): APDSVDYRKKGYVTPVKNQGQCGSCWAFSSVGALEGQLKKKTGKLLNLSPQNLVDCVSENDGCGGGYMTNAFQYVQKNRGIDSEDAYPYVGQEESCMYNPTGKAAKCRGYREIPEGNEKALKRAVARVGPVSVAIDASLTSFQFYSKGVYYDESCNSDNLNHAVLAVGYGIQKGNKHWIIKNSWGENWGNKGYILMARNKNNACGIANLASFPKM
Procedure: (§1) Testing for blockade of the corresponding enzymic activities was carried out by means of kinetic fluorescence assays (excitation 390 nm, emission 460 nm).
(§2) Apparent Ki values were calculated from the experimentally determined IC50 values by the Cheng-Prussoff relation assuming a reversible competitive enzyme inhibition. The Km values of the substrates used under the assay conditions indicated above were: 90 μM (Z-Phe-Arg-AMC, cathepsin B), 10 μM (Z-Gly-Pro-Arg-AMC, cathepsin K), 2 μM (Z-Phe-Arg-AMC, cathepsin L), and 30 μM (Z-Val-Val-Arg-AMC, cathepsin S).
(§3) The indicated Ki values are averages of the inhibition constants calculated on the basis of 2 to 4 independent dose-effect plots.
(§4) • 1. Calpain I: • 20 nM calpain-I—isolated from human erythrocytes (Calbiochem #208713), 100 μM Suc-Leu-Tyr-AMC (Bachem #1-1355) as substrate in buffer with 62 mM imidazole, 0.3 mM CaCl2, 0.10% CHAPS, 0.05% BSA, 1 mM DTT at pH 7.3 and room temperature. • 2. Cathepsin B: • 0.25 nM cathepsin B—isolated from human liver (Calbiochem #219362), 100 μM Z-Phe-Arg-AMC (Bachem #1-1160) as substrate 50 mM MES, 2 mM EDTA, 0.05% Brij 35, 2.5 mM L-cysteine, pH 6.0, room temperature. • 3. Cathepsin K: • 3 nM cathepsin K—activated from recombinant human procathepsin K from E. coli (Calbiochem #342001), 10 μM Z-Gly-Pro-Arg-AMC (Biomol #P-142) as substrate in 50 mM MES, 2 mM EDTA, 0.05% Brij 35, 2.5 mM L-cysteine, pH 6.0, room temperature. • 4. Cathepsin L: • 1 nM cathepsin L—isolated from human liver (Calbiochem #219402), 2 μM Z-Phe-Arg-AMC (Bachem #1-1160) as substrate in 50 mM MES, 2 mM EDTA, 0.05% Brij 35, 2.5 mM L-cysteine, pH 6.0, room temperature. • 5. Cathepsin S: • 0.5 nM recombinant human cathepsin S from E. coli (Calbiochem #219343), 20 μM Z-Val-Val-Arg-AMC (Bachem #1-1540) as substrate in 50 mM MES, 2 mM EDTA, 0.05% Brij 35, 2.5 mM L-cysteine, pH 6.0, room temperature.

[2] = molecular target: T2, cathepsin L (Homo sapiens, UniProt P07711); assay: Cathepsin L enzyme inhibition in vitro (kinetic fluorescence assay); conditions: Ki(cathepsin L)/Ki(calpain) ratio
T2 construct: cathepsin L—isolated from human liver; purchased Calbiochem 219402; host or cells: human liver (tissue isolate)
Procedure: as §1, §2, §3, §4

[3] = molecular target: T3, cathepsin S (Homo sapiens, UniProt P25774); assay: Cathepsin S enzyme inhibition in vitro (kinetic fluorescence assay); conditions: Ki(cathepsin S)/Ki(calpain) ratio
T3 construct: purchased Calbiochem 219343; host or cells: E. coli
Procedure: as §1, §2, §3, §4

[4] = molecular target: T4, cathepsin B (Homo sapiens, UniProt P07858); assay: Cathepsin B enzyme inhibition in vitro (kinetic fluorescence assay); conditions: Ki(cathepsin B)/Ki(calpain) ratio
T4 construct: cathepsin B—isolated from human liver; purchased Calbiochem 219362; host or cells: human liver (tissue isolate)
Procedure: as §1, §2, §3, §4

T3 sequence (P25774 115-331): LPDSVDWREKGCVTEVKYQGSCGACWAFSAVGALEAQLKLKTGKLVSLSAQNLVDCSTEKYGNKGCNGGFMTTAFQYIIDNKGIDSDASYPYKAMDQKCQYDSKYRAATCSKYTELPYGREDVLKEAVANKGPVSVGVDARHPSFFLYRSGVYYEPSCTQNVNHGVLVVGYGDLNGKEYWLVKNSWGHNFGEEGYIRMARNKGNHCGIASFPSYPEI
T2 sequence (P07711 114-333): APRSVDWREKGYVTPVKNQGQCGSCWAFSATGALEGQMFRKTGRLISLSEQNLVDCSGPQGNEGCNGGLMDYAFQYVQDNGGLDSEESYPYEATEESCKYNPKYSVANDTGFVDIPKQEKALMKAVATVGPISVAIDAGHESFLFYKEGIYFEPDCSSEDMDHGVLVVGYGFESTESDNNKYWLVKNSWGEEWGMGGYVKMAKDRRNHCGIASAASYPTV

Row | Molecule | Sel cat. K [1] | Sel cat. L [2] | Sel cat. S [3] | Sel cat. B [4]
1 | NC(=O)C(=O)C(Cc1ccccc1)NC(=O)c1cccnc1-n1ccc(-c2ccc3c(c2)CCO3)n1 (stereo not shown) [Example 75, N-(3-Amino-1-benzyl-2,3-dioxopropyl)-2-[3-(2,3-dihydrobenzo[b]furan-5-yl)-1H-pyrazol-1-yl]nicotinamide] | + (+ means 10≦Ki(cathepsin K)/Ki(calpain)<30) | ++ (++ means a Ki(cathepsin L)/Ki(calpain) ratio of ≧50) | ++ (++ means a Ki(cathepsin S)/Ki(calpain) ratio of ≧100) | 
2 | CN1CCN(c2ccc(-c3ccn(-c4ncccc4C(=O)NC(Cc4ccccc4)C(=O)C(N)=O)n3)cc2)CC1 (stereo not shown) [Example 68, N-(3-Amino-1-benzyl-2,3-dioxopropyl)-2-{3-[4-(4-methylpiperazin-1-yl)phenyl]-1H-pyrazol-1-yl}nicotinamide] | + (+ means 10≦Ki(cathepsin K)/Ki(calpain)<30) |  | ++ (++ means a Ki(cathepsin S)/Ki(calpain) ratio of ≧100) | 
3 | NC(=O)C(=O)C(Cc1ccccc1)NC(=O)c1cccnc1-n1ccc(-c2cccc(N3CCCC3)c2)n1 (stereo not shown) [Example 74, N-(3-Amino-1-benzyl-2,3-dioxopropyl)-2-[3-(3-pyrrolidin-1-ylphenyl)-1H-pyrazol-1-yl]nicotinamide] | ++ (++ means a Ki(cathepsin K)/Ki(calpain) ratio of ≧30) |  | ++ (++ means a Ki(cathepsin S)/Ki(calpain) ratio of ≧100) | ++ (++ means a Ki(cathepsin B)/Ki(calpain) ratio of ≧30)
4 | NC(=O)C(=O)C(Cc1ccccc1)NC(=O)c1cccnc1-n1ccc(C2CCCCC2)n1 (stereo not shown) [Example 192, N-[3-Amino-2,3-dioxo-1-(phenylmethyl)propyl]-2-(3-cyclohexyl-1H-pyrazol-1-yl)pyridine-3-carboxamide] | + (+ means 10≦Ki(cathepsin K)/Ki(calpain)<30) | ++ (++ means a Ki(cathepsin L)/Ki(calpain) ratio of ≧50) | ++ (++ means a Ki(cathepsin S)/Ki(calpain) ratio of ≧100) | 
5 | N#Cc1cnc(-n2ccc(-c3ccccc3)n2)c(C(=O)NC(Cc2ccccc2)C(=O)C(N)=O)c1 (stereo not shown) [Example 82, N-(3-Amino-1-benzyl-2,3-dioxopropyl)-5-cyano-2-(3-phenyl-1H-pyrazol-1-yl)nicotinamide] | ++ (++ means a Ki(cathepsin K)/Ki(calpain) ratio of ≧30) | ++ (++ means a Ki(cathepsin L)/Ki(calpain) ratio of ≧50) |  | ++ (++ means a Ki(cathepsin B)/Ki(calpain) ratio of ≧30)
6 | NC(=O)C(=O)C(CC1CCCCC1)NC(=O)c1cccnc1-n1ccc(-c2ccccc2)n1 (stereo not shown) [Example 66, N-[3-Amino-1-(cyclohexylmethyl)-2,3-dioxopropyl]-2-(3-phenyl-1H-pyrazol-1-yl)nicotinamide] | + (+ means 10≦Ki(cathepsin K)/Ki(calpain)<30) | + (+ means 30≦Ki(cathepsin L)/Ki(calpain)<50) | ++ (++ means a Ki(cathepsin S)/Ki(calpain) ratio of ≧100) | 
7 | Cl.NC(=O)C(=O)C(Cc1ccccc1)NC(=O)c1cccnc1-n1ccc(-c2ccc(N3CCOCC3)cc2)n1 (stereo not shown) [Example 29, N-(3-Amino-1-benzyl-2,3-dioxopropyl)-2-[3-(4-morpholin-4-ylphenyl)-1H-pyrazol-1-yl]nicotinamide hydrochloride] | + (+ means 10≦Ki(cathepsin K)/Ki(calpain)<30) | ++ (++ means a Ki(cathepsin L)/Ki(calpain) ratio of ≧50) | ++ (++ means a Ki(cathepsin S)/Ki(calpain) ratio of ≧100) | 
8 | NC(=O)C(=O)C(Cc1ccccc1)NC(=O)c1cc(Cl)cnc1-n1ccc(-c2ccc(N3CCOCC3)cc2)n1 (stereo not shown) [Example 31, N-(3-Amino-1-benzyl-2,3-dioxopropyl)-5-chloro-2-[3-(4-morpholin-4-ylphenyl)-1H-pyrazol-1-yl]nicotinamide] | + (+ means 10≦Ki(cathepsin K)/Ki(calpain)<30) | + (+ means 30≦Ki(cathepsin L)/Ki(calpain)<50) |  | ++ (++ means a Ki(cathepsin B)/Ki(calpain) ratio of ≧30)
9 | NC(=O)C(=O)C(Cc1ccccc1)NC(=O)c1cc(Cl)cnc1-n1ccc(-c2ccccc2)n1 (stereo not shown) [Example 27, N-(3-Amino-1-benzyl-2,3-dioxopropyl)-5-chloro-2-(3-phenyl-1H-pyrazol-1-yl)nicotin-amide] | + (+ means 10≦Ki(cathepsin K)/Ki(calpain)<30) | + (+ means 30≦Ki(cathepsin L)/Ki(calpain)<50) |  | ++ (++ means a Ki(cathepsin B)/Ki(calpain) ratio of ≧30)
10 | N#Cc1cnc(-n2ccc(-c3ccccc3F)n2)c(C(=O)NC(Cc2ccccc2)C(=O)C(N)=O)c1 (stereo not shown) [Example 188, N-[3-Amino-2,3-dioxo-1-(phenylmethyl)propyl]-5-cyano-2-[3-(2-fluorophenyl)-1H-pyrazol-1-yl]pyridine-3-carboxamide] | ++ (++ means a Ki(cathepsin K)/Ki(calpain) ratio of ≧30) | ++ (++ means a Ki(cathepsin L)/Ki(calpain) ratio of ≧50) |  | 
11 | NC(=O)C(=O)C(Cc1ccc(Br)cc1)NC(=O)c1cccnc1-n1ccc(-c2ccccc2)n1 (stereo not shown) [Example 122, N-{3-Amino-1-[(4-bromophenyl)methyl]-2,3-dioxopropyl}-2-(3-phenyl-1H-pyrazol-1-yl)pyridine-3-carboxamide] |  | ++ (++ means a Ki(cathepsin L)/Ki(calpain) ratio of ≧50) | ++ (++ means a Ki(cathepsin S)/Ki(calpain) ratio of ≧100) | ++ (++ means a Ki(cathepsin B)/Ki(calpain) ratio of ≧30)
12 | CC(C)c1ccc2c(c1)-c1nn(-c3ncccc3C(=O)NC(Cc3ccccc3)C(=O)C(N)=O)cc1CO2 (stereo not shown) [Example 144, N-[3-Amino-2,3-dioxo-1-(phenylmethyl)propyl]-2-[8-(1-methylethyl)chromeno[4,3-c]pyrazol-2(4H)-yl]pyridine-3-carboxamide] |  | ++ (++ means a Ki(cathepsin L)/Ki(calpain) ratio of ≧50) | ++ (++ means a Ki(cathepsin S)/Ki(calpain) ratio of ≧100) | + (+ means 10≦Ki(cathepsin B)/Ki(calpain)<30)
13 | COc1ccc(OC)c(-c2ccn(-c3ncccc3C(=O)NC(Cc3ccccc3)C(=O)C(N)=O)n2)c1 (stereo not shown) [Example 151, N-[3-Amino-2,3-dioxo-1-(phenylmethyl)propyl]-2-{3-[2,5-bis(methyloxy)phenyl]-1H-pyrazol-1-yl}pyridine-3-carboxamide] | ++ (++ means a Ki(cathepsin K)/Ki(calpain) ratio of ≧30) | ++ (++ means a Ki(cathepsin L)/Ki(calpain) ratio of ≧50) |  | ++ (++ means a Ki(cathepsin B)/Ki(calpain) ratio of ≧30)
14 | NC(=O)C(=O)C(Cc1ccccc1)NC(=O)c1cccnc1-n1ccc(-c2cccc3cnccc23)n1 (stereo not shown) [Example 156, N-[3-Amino-2,3-dioxo-1-(phenylmethyl)propyl]-2-(3-isoquinolin-5-yl-1H-pyrazol-1-yl)pyridine-3-carboxamide] |  | + (+ means 30≦Ki(cathepsin L)/Ki(calpain)<50) | ++ (++ means a Ki(cathepsin S)/Ki(calpain) ratio of ≧100) | + (+ means 10≦Ki(cathepsin B)/Ki(calpain)<30)
15 | N-{3-Amino-1-[(4-fluorophenyl)methyl]-2,3-dioxopropyl}-2-[3-(2,3-dichlorophenyl)-1H-pyrazol-1-yl]pyridine-3-carboxamide [Example 161] |  | + (+ means 30≦Ki(cathepsin L)/Ki(calpain)<50) | ++ (++ means a Ki(cathepsin S)/Ki(calpain) ratio of ≧100) | + (+ means 10≦Ki(cathepsin B)/Ki(calpain)<30)
16 | NC(=O)C(=O)C(Cc1cccs1)NC(=O)c1cccnc1-n1ccc(-c2ccccc2)n1 (stereo not shown) [Example 40, N-[3-Amino-2,3-dioxo-1-(2-thienylmethyl)propyl]-2-(3-phenyl-1H-pyrazol-1-yl)pyridine-3-carboxamide] |  | ++ (++ means a Ki(cathepsin L)/Ki(calpain) ratio of ≧50) | ++ (++ means a Ki(cathepsin S)/Ki(calpain) ratio of ≧100) | + (+ means 10≦Ki(cathepsin B)/Ki(calpain)<30)
